Reference: patent US9242998B2, “Tetracyclic heterocycle compounds and methods of use thereof for the treatment of hepatitis C” (priority 2013, dated 2016)
pIC50: −log10 of the molar value.

How the values were obtained:
HCV genotype 1b replicon = test: HCV replicon assay, genotype 1b (cell ELISA for replicon-encoded NS3/4A); assay type: cell-based; conditions: Hepatitis C virus, 96 h, read-out: 1b IC50
Protocol: (§1) Measurement of inhibition by compounds was performed using the HCV replicon system. Several different replicons encoding different HCV genotypes or mutations were used. In addition, potency measurements were made using different formats of the replicon assay, including different ways of measurements and different plating formats. See Jan M. Vrolijk et al., A replicons-based bioassay for the measurement of interferons in patients with chronic hepatitis C, 110 J. V[…] 201 (2003); Steven S. Carroll et al., Inhibition of Hepatitis C Virus RNA Replication by 2′-Modified Nucleoside Analogs, 278(14) J. BIOLOGICAL CHEMISTRY 11979 (2003). However, the underlying principles are common to all of these determinations, and are outlined below.
(§2) Stable neomycin phosphotransferase encoding replicons-harboring cell lines were used, so all cell lines were maintained under G418 selection prior to the assay. Potency was determined using a cell ELISA assay with an antibody to the replicons encoded NS3/4a protease. See Caterina Trozzi et al., In Vitro Selection and Characterization of Hepatitis C Virus Serine Protease Variants Resistant to an Active-Site Peptide Inhibitor, 77(6) J. Virol. 3669 (2003). To initiate an assay, replicon cells were plated in the presence of a dilution series of test compound in the absence of G418. Typically, the assays were performed in a 96-well plate formate for manual operation, or a 384-well plate format for automated assay. Replicon cells and compound were incubated for 96 hours. At the end of the assay, cells were washed free of media and compound, and the cells were then lysed. RNA was quantified indirectly through detection of replicon-encoded NS3/4A protein levels, through an ELISA-based assay with an antibody specific for NS3/4A. IC50 determinations were calculated as a percentage of a DMSO control by fitting the data to a four-parameter fit function and the data obtained is provided in the table below.
(§3) Data for selected compounds of the present invention was obtained for genotypes 1a and 1b using this method and is provided in the table below: […]

HCV genotype 1a replicon = test: HCV replicon assay, genotype 1a (cell ELISA for replicon-encoded NS3/4A); assay type: cell-based; conditions: Hepatitis C virus, 96 h, read-out: 1a IC50
Protocol: as §1, §2, §3

Structure (SMILES) | pIC50 (HCV genotype 1b replicon) | pIC50 (HCV genotype 1a replicon)
CNC(=O)c1c(-c2cccnc2OC)oc2cc(N(C)S(C)(=O)=O)c(-c3ccc4c(n3)-c3cc5c(F)cccc5n3CO4)cc12 [Compound 15] | 7.47 | 7.64
CNC(=O)c1c(-c2cn(C)nc2C)oc2cc(N(C)S(C)(=O)=O)c(-c3ccc4c(n3)-c3cc5c(F)cccc5n3CO4)cc12 [Compound 16] | 8.07 | 7.59
CNC(=O)c1c(-c2cccnc2O)oc2cc(N(C)S(C)(=O)=O)c(-c3ccc4c(n3)-c3cc5c(F)cccc5n3CO4)cc12 [Compound 17, 5-(11-fluoro-6H-pyrido[2′,3′:5,6][1,3]oxazino[3,4-a]indol-2-yl)-2-(2-hydroxypyridin-3-yl)-N-methyl-6-(N-methylmethylsulfonamido)benzofuran-3-carboxamide] | 6.41 | 6.49
CNC(=O)c1c(-c2ccn(C)c(=O)c2)oc2cc(N(C)S(C)(=O)=O)c(-c3ccc4c(n3)-c3cc5c(F)cccc5n3CO4)cc12 [Compound 18, 5-(11-fluoro-6H-pyrido[2′,3′:5,6][1,3]oxazino[3,4-a]indol-2-yl)-N-methyl-2-(1-methyl-2-oxo-1,2-dihydropyridin-4-yl)-6-(N-methylmethylsulfonamido)benzofuran-3-carboxamide] | 7.54 | 7.24
CNC(=O)c1c(-c2ccc(OC)nc2)oc2cc(N(C)S(C)(=O)=O)c(-c3ccc4c(n3)-c3nc5cccc(F)c5n3CO4)cc12 [Compound 19, 5-(8-fluoro-6H-benzo[4,5]imidazo[1,2-c]pyrido[2,3-e][1,3]oxazin-2-yl)-2-(6-methoxypyridin-3-yl)-N-methyl-6-(N-methylmethylsulfonamido)benzofuran-3-carboxamide] | 7.89 | 7.46
CNC(=O)c1c(-c2ccc(OC)nc2)oc2cc(N(C)S(C)(=O)=O)c(-c3ccc4c(n3)-c3nc5c(F)cccc5n3CO4)cc12 [Compound 20, 5-(11-fluoro-6H-benzo[4,5]imidazo[1,2-c]pyrido[2,3-e][1,3]oxazin-2-yl)-2-(6-methoxypyridin-3-yl)-N-methyl-6-(N-methylmethylsulfonamido)benzofuran-3-carboxamide] | 8.60 | 8.43
CNC(=O)c1c(-c2ccc(C(F)F)nc2)oc2cc(N(C)S(C)(=O)=O)c(-c3ccc4c(n3)-c3cc5c(F)cccc5n3C(CO)O4)cc12 (stereo not shown) [Compound 22] | 8.60 | 8.46
CNC(=O)c1c(-c2ccc(OC(F)F)nc2)oc2cc(N(C)S(C)(=O)=O)c(-c3ccc4c(n3)-c3cc5c(F)cccc5n3C(CO)O4)cc12 (stereo not shown) [Compound 23] | 8.54 | 8.55
CNC(=O)c1c(-c2ccc(OCC(F)(F)F)nc2)oc2cc(N(C)S(C)(=O)=O)c(-c3ccc4c(n3)-c3cc5c(F)cccc5n3C(CO)O4)cc12 (stereo not shown) [Compound 24] | 8.85 | 8.77
CNC(=O)c1c(-c2ccc(OC(F)F)nc2)oc2cc(N(C)S(C)(=O)=O)c(-c3ccc4c(n3)-c3cc5c(F)cccc5n3CO4)cc12 [Compound 25, 2-(6-(difluoromethoxy)pyridin-3-yl)-5-(11-fluoro-6H-pyrido[2′,3′:5,6][1,3]oxazino[3,4-a]indol-2-yl)-N-methyl-6-(N-methylmethylsulfonamido)benzofuran-3-carboxamide] | 8.30 | 8.52
CNC(=O)c1c(-c2ccc(=O)n(C(F)F)c2)oc2cc(N(C)S(C)(=O)=O)c(-c3ccc4c(n3)-c3cc5c(F)cccc5n3CO4)cc12 [Compound 26, 2-(1-(difluoromethyl)-6-oxo-1,6-dihydropyridin-3-yl)-5-(11-fluoro-6H-pyrido[2′,3′:5,6][1,3]oxazino[3,4-a]indol-2-yl)-N-methyl-6-(N-methylmethylsulfonamido)benzofuran-3-carboxamide] | 6.97 | 6.93
CNC(=O)c1c(-c2ccc(Oc3ccc(F)cc3)nc2)oc2cc(N(C)S(C)(=O)=O)c(-c3ccc4c(n3)-c3cc5c(F)cccc5n3CO4)cc12 [Compound 27, 5-(11-fluoro-6H-pyrido[2′,3′:5,6][1,3]oxazino[3,4-a]indol-2-yl)-2-(6-(4-fluorophenoxy)pyridin-3-yl)-N-methyl-6-(N-methylmethylsulfonamido)benzofuran-3-carboxamide] | 7.47 | 7.64
CNC(=O)c1c(-c2ccc(C(F)F)cc2)oc2cc(N(C)S(C)(=O)=O)c(-c3ccc4c(n3)-c3cc5c(F)cccc5n3CO4)cc12 [Compound 28, 2-(4-(difluoromethyl)phenyl)-5-(11-fluoro-6H-pyrido[2′,3′:5,6][1,3]oxazino[3,4-a]indol-2-yl)-N-methyl-6-(N-methylmethylsulfonamido)benzofuran-3-carboxamide] | 8.16 | 8.05
CNC(=O)c1c(-c2ccc(C#N)cc2)oc2cc(N(C)S(C)(=O)=O)c(-c3ccc4c(n3)-c3cc5c(F)cccc5n3CO4)cc12 [Compound 29, 2-(4-cyanophenyl)-5-(11-fluoro-6H-pyrido[2′,3′:5,6][1,3]oxazino[3,4-a]indol-2-yl)-N-methyl-6-(N-methylmethylsulfonamido)benzofuran-3-carboxamide] | 7.60 | 7.89
CNC(=O)c1c(-c2ccc(F)cn2)oc2cc(N(C)S(C)(=O)=O)c(-c3ccc4c(n3)-c3cc5c(F)cccc5n3CO4)cc12 [Compound 30] | 7.60 | 7.96
CNC(=O)c1c(-c2ccc(C(F)(F)F)cn2)oc2cc(N(C)S(C)(=O)=O)c(-c3ccc4c(n3)-c3cc5c(F)cccc5n3CO4)cc12 [Compound 31] | 8.41 | 8.23
CNC(=O)c1c(C2=CCSCC2)oc2cc(N(C)S(C)(=O)=O)c(-c3ccc4c(n3)-c3cc5c(F)cccc5n3CO4)cc12 [Compound 32, 2-(3,6-dihydro-2H-thiopyran-4-yl)-5-(11-fluoro-6H-pyrido[2′,3′:5,6][1,3]oxazino[3,4-a]indol-2-yl)-N-methyl-6-(N-methylmethylsulfonamido)benzofuran-3-carboxamide] | 7.85 | 7.44
CNC(=O)c1c(-c2ccc(OC(F)(F)F)cc2)oc2cc(N(C)S(C)(=O)=O)c(-c3ccc4c(n3)-c3cc5c(F)cccc5n3CO4)cc12 [Compound 33] | 8.60 | 7.30
CNC(=O)c1c(-c2cnn(C(C)C)c2)oc2cc(N(C)S(C)(=O)=O)c(-c3ccc4c(n3)-c3cc5c(F)cccc5n3CO4)cc12 [Compound 34] | 7.85 | 7.82
CNC(=O)c1c(-c2ccc(C(F)(F)F)nc2)oc2cc(N(C)S(C)(=O)=O)c(-c3ccc4c(n3)-c3cc5c(F)cccc5n3CO4)cc12 [Compound 35] | 8.51 | 8.55
CNC(=O)c1c(-n2ccnc2)oc2cc(N(C)S(C)(=O)=O)c(-c3ccc4c(n3)-c3cc5c(F)cccc5n3CO4)cc12 [Compound 36, 5-(11-fluoro-6H-pyrido[2′,3′:5,6][1,3]oxazino[3,4-a]indol-2-yl)-2-(1H-imidazol-1-yl)-N-methyl-6-(N-methylmethylsulfonamido)benzofuran-3-carboxamide] | 7.70 | 7.85
CNC(=O)c1c(-n2ccccc2=O)oc2cc(N(C)S(C)(=O)=O)c(-c3ccc4c(n3)-c3cc5c(F)cccc5n3CO4)cc12 [Compound 37] | 8.52 | 8.66
CNC(=O)c1c(-n2ccc(C)cc2=O)oc2cc(N(C)S(C)(=O)=O)c(-c3ccc4c(n3)-c3cc5c(F)cccc5n3CO4)cc12 [Compound 38] | 8.57 | 8.46
CNC(=O)c1c(-n2cc(C)cn2)oc2cc(N(C)S(C)(=O)=O)c(-c3ccc4c(n3)-c3cc5c(F)cccc5n3CO4)cc12 [Compound 39] | 7.17 | 7.32
CNC(=O)c1c(-n2cccn2)oc2cc(N(C)S(C)(=O)=O)c(-c3ccc4c(n3)-c3cc5c(F)cccc5n3CO4)cc12 [Compound 40] | 7.66 | 7.80
CNC(=O)c1c(-n2cnc(C)n2)oc2cc(N(C)S(C)(=O)=O)c(-c3ccc4c(n3)-c3cc5c(F)cccc5n3CO4)cc12 [Compound 41] | 7.66 | 7.09
CNC(=O)c1c(N2CCOCC2)oc2cc(N(C)S(C)(=O)=O)c(-c3ccc4c(n3)-c3cc5c(F)cccc5n3CO4)cc12 [Compound 42, 5-(11-fluoro-6H-pyrido[2′,3′:5,6][1,3]oxazino[3,4-a]indol-2-yl)-N-methyl-6-(N-methylmethylsulfonamido)-2-morpholinobenzofuran-3-carboxamide] | 7.46 | 7.07
CNC(=O)c1c(N2CCOC2=O)oc2cc(N(C)S(C)(=O)=O)c(-c3ccc4c(n3)-c3cc5c(F)cccc5n3CO4)cc12 [Compound 43] | 7.30 | 7.68
CNC(=O)c1c(C2=CCCC2)oc2cc(N(C)S(C)(=O)=O)c(-c3ccc4c(n3)-c3cc5ccccc5n3CO4)cc12 [Compound 44, 2-(cyclopent-1-en-1-yl)-N-methyl-6-(N-methylmethylsulfonamido)-5-(6H-pyrido[2′,3′:5,6][1,3]oxazino[3,4-a]indol-2-yl)benzofuran-3-carboxamide] | 8.08 | 8.21
